# Test results as given in article PMC5370183, “Kinetics of the LOV domain of ZEITLUPE determine its circadian function in Arabidopsis” (eLife, 2017).
# Legend:
# [1] = target: T1, ZEITLUPE LOV domain (ZTL 29-165, ZTL-S) (Arabidopsis thaliana, UniProt Q94BT6, V48I/G80R); experiment: X-ray crystal structure; type: binding; conditions: dark state (5SVV, 2.1 Å) non-covalent; light state (5SVW, 2.3 Å) covalent C4a adduct with C82
# T1 construct: gene ADO1; LOV domain, residues 29-165, E. coli, 6xHis or GST tag cleaved by TEV; monomer 16 kDa, homodimer 33 kDa (MALS)
# T1 sequence (Q94BT6 29-165 V48I/G80R): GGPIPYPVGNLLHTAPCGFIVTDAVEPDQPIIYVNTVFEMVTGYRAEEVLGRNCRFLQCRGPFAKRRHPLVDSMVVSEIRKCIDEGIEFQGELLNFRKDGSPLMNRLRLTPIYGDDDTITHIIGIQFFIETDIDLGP
# [2] = target: T2, ZEITLUPE LOV domain (ZTL 29-165, ZTL-S) (Arabidopsis thaliana, UniProt Q94BT6); experiment: X-ray crystal structure; type: binding; conditions: dark state, 2.5 Å; FMN non-covalently bound next to C82
# T2 construct: gene ADO1; LOV domain, residues 29-165, E. coli, 6xHis or GST tag cleaved by TEV; monomer 16 kDa, homodimer 33 kDa (MALS)
# T2 sequence (Q94BT6 29-165): as the sequence (Q94BT6 29-165 V48I/G80R) above, with I20V, R52G counted along it
compound,measurement,setting,value
Cc1cc2nc3c(=O)[nH]c(=O)nc-3n(C[C@H](O)[C@H](O)[C@H](O)COP(=O)(O)O)c2cc1C [FMN],X-ray crystal structure,[1],Light state crystal structure of V48I:G80R
same,X-ray crystal structure,[2],The helices cradle the photoreactive FMN adjacent to C82 (Eα helix).
